Results from paper PMC7490411 (Signal Transduction and Targeted Therapy, 2020).
Read-outs that look alike come from different tables or passages of the source.

Assays:
PKNB(M.tuberculosis) = test: KINOMEscan; assay type: binding; details: 1000 nM
JNK3 = test: KINOMEscan; assay type: binding; details: 1000 nM
PYK2 = test: KINOMEscan; assay type: binding; details: 1000 nM
WNK2 = test: KINOMEscan; assay type: binding; details: 1000 nM
TSSK1B = test: KINOMEscan; assay type: binding; details: 1000 nM
FLT3(ITD,F691L) = test: KINOMEscan; assay type: binding; details: 1000 nM
[1] = tested on: ABL1(Q252H)-phosphorylated; test: KINOMEscan; assay type: binding; details: 1000 nM
VPS34 = test: KINOMEscan; assay type: binding; details: 1000 nM
CAMKK2 = test: KINOMEscan; assay type: binding; details: 1000 nM
DMPK = test: KINOMEscan; assay type: binding; details: 1000 nM
ERK5 = test: KINOMEscan; assay type: binding; details: 1000 nM
MEK6 = test: KINOMEscan; assay type: binding; details: 1000 nM
RIOK1 = test: KINOMEscan; assay type: binding; details: 1000 nM
KIT-autoinhibited = test: KINOMEscan; assay type: binding; details: 1000 nM
S6K1 = test: KINOMEscan; assay type: binding; details: 1000 nM
SRC = test: KINOMEscan; assay type: binding; details: 1000 nM
PCTK2 = test: KINOMEscan; assay type: binding; details: 1000 nM
ERK1 = test: KINOMEscan; assay type: binding; details: 1000 nM
NIK = test: KINOMEscan; assay type: binding; details: 1000 nM
TNIK = test: KINOMEscan; assay type: binding; details: 1000 nM
GRK1 = test: KINOMEscan; assay type: binding; details: 1000 nM
NEK11 = test: KINOMEscan; assay type: binding; details: 1000 nM
CDC2L1 = test: KINOMEscan; assay type: binding; details: 1000 nM
DYRK1A = test: KINOMEscan; assay type: binding; details: 1000 nM
JNK1 = test: KINOMEscan; assay type: binding; details: 1000 nM
[2] = in vivo pharmacokinetic study; set-up: species or system rats; details: male, Sprague-Dawley, rat, plasma; for MRT inf: read-out: MRT (0- ∞)
p38-alpha = test: KINOMEscan; assay type: binding; details: 1000 nM
PIK3C2B = test: KINOMEscan; assay type: binding; details: 1000 nM
TNK2 = test: KINOMEscan; assay type: binding; details: 1000 nM
CDKL3 = test: KINOMEscan; assay type: binding; details: 1000 nM
[3] = rat 14-day dose escalation subacute toxicity study; assay type: in vivo; details: rats, up to 800 mg/kg/day, continuous 14 days
Description: The subacute toxicity study of CHMFL-BTK-85 was conducted on SD rats, 200g in weight and five weeks in age. All mice were purchased from Gempharmatech Co., Ltd (Nanjing, China). All animals were housed in a specific pathogen-free facility and used according to the animal care regulations of Hefei Institutes of Physical Science Chinese Academy of Sciences. CHMFL-BTK-85 was delivered daily in a HKI solution (0.5% Methocellulose/0.4% Tween 80 in ddH2O) by orally gavage. Body weight was measured daily after CHMFL-BTK-85 treatment.

SMILES: C=CC(=O)Nc1cc(Nc2cc(-c3cccc(NC(=O)c4cc5c(s4)CCCC5)c3C)cn(C)c2=O)ccc1N1CCN(CC)CC1 [CHMFL-BTK-85]
- Percent Control (PKNB(M.tuberculosis)): 88%
- Percent Control (JNK3): 98%
- Percent Control (PYK2): 100%
- Percent Control (WNK2): 87%
- Percent Control (TSSK1B): 88%
- Percent Control (FLT3(ITD,F691L)): 77%
- Percent Control [1]: 96%
- Percent Control (VPS34): 100%
- Percent Control (CAMKK2): 100%
- Percent Control (DMPK): 92%
- Percent Control (ERK5): 100%
- Percent Control (MEK6): 78%
- Percent Control (RIOK1): 100%
- Percent Control (KIT-autoinhibited): 100%
- Percent Control (S6K1): 100%
- Percent Control (SRC): 77%
- Percent Control (PCTK2): 100%
- Percent Control (ERK1): 93%
- Percent Control (NIK): 100%
- Percent Control (TNIK): 99%
- Percent Control (GRK1): 84%
- Percent Control (NEK11): 100%
- Percent Control (CDC2L1): 100%
- Percent Control (DYRK1A): 100%
- Percent Control (JNK1): 100%
- AUC(0-inf) ([2]; iv, Rats, I.V. 1mg/kg): 766 ± 261 ng·h/mL
- AUC(0-t) ([2]; iv, Rats, I.V. 1mg/kg): 747 ± 263 ng·h/mL
- Cmax ([2]; iv, Rats, I.V. 1mg/kg): 1080 ± 390 ng/mL
- Tmax ([2]; iv, Rats, I.V. 1mg/kg): 0.02 h
- half-life ([2]; iv, Rats, I.V. 1mg/kg): 1.6 ± 0.3 h
- MRT inf ([2]; iv, Rats, I.V. 1mg/kg): 1.6 ± 0.2 h
- AUC(0-inf) ([2]; po, Rats, P.O. 10mg/kg): 2160 ± 474 ng·h/mL
- Cmax ([2]; po, Rats, P.O. 10mg/kg): 296 ± 67 ng/mL
- Tmax ([2]; po, Rats, P.O. 10mg/kg): 6 h
- bioavailability ([2]; po, Rats, P.O. 10mg/kg): 29%
- half-life ([2]; po, Rats, P.O. 10mg/kg): 2.9 h
- MRT inf ([2]; po, Rats, P.O. 10mg/kg): 6.5 ± 0.1 h
- AUC(0-t) ([2]; rats, oral administration at 10 mg/kg): 2140 ng·h/mL
- Percent Control (p38-alpha): 93%
- Percent Control (PIK3C2B): 92%
- Percent Control (TNK2): 64%
- Percent Control (CDKL3): 99%
- tolerability in dose escalation study [3]: well tolerated
